The record followed here is publication PMC9599461, “Stereoselectivity in the Membrane Transport of Phenylethylamine Derivatives by Human Monoamine Transporters and Organic Cation Transporters 1, 2, and 3” (Biomolecules, 2022).

The structures appear in SMILES notation. Where two headings read alike, the source gives them in different places.

For one data set, the target named is NET (Homo sapiens, UniProt P23975). Briefly: Stereoselective uptake into NET-overexpressing HEK293 cells.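 On all read-outs here: intracellular enantiomers quantified in cell lysates by chiral HPLC-MS/MS after a 2 min substrate incubation, with uptake normalized to total cellular protein.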 The following applies: for Clint ± SEM: quotient of vmax over Km; for selectivity ratio at 2 min: human.
Sequence of NET (P23975 whole entry): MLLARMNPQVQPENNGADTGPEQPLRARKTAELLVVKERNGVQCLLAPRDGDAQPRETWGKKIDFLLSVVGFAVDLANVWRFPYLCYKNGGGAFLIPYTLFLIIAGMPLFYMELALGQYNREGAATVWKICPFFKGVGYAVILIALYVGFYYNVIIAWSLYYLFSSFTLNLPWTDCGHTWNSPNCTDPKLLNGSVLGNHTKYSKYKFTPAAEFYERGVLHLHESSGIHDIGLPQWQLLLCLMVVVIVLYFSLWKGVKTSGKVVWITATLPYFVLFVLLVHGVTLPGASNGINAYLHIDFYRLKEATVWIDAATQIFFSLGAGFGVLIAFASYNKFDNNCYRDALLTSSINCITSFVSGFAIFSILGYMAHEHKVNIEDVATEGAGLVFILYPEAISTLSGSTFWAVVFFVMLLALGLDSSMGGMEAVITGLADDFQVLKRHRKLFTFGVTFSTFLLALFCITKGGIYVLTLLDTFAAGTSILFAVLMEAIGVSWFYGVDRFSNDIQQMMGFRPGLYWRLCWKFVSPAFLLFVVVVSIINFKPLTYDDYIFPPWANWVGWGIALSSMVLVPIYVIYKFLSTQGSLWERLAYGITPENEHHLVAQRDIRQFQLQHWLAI
The target of data set [1] is T1, SERT (Homo sapiens, UniProt P31645). Briefly: Stereoselective uptake into SERT-overexpressing HEK293 cells.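 On all read-outs here: uptake into HEK293 cells stably expressing human SERT over 2 min, enantiomers measured in cell lysate by chiral HPLC-MS/MS, normalized to total protein.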 The following applies: for Clint ± SEM: quotient of vmax over Km.
T1 sequence (P31645 whole entry): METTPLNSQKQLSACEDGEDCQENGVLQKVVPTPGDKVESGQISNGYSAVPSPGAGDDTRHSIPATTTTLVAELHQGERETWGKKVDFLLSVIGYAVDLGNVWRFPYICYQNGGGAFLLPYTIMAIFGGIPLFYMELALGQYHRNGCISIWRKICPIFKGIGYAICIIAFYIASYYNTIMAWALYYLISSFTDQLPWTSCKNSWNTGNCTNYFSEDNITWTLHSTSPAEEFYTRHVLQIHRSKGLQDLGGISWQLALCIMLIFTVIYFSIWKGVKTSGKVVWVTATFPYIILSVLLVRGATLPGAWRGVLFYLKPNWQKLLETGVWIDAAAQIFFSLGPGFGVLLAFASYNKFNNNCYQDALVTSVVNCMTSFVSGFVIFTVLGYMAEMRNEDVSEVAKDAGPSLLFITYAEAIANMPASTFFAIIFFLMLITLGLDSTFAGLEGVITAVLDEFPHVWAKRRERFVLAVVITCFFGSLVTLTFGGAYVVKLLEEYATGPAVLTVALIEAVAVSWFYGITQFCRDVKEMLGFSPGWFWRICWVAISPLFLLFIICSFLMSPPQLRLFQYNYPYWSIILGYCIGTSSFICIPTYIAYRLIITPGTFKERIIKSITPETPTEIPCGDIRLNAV
A further data set concerns the target T2, OCT3 (Homo sapiens, UniProt O75751).
T2 sequence (O75751 1-556): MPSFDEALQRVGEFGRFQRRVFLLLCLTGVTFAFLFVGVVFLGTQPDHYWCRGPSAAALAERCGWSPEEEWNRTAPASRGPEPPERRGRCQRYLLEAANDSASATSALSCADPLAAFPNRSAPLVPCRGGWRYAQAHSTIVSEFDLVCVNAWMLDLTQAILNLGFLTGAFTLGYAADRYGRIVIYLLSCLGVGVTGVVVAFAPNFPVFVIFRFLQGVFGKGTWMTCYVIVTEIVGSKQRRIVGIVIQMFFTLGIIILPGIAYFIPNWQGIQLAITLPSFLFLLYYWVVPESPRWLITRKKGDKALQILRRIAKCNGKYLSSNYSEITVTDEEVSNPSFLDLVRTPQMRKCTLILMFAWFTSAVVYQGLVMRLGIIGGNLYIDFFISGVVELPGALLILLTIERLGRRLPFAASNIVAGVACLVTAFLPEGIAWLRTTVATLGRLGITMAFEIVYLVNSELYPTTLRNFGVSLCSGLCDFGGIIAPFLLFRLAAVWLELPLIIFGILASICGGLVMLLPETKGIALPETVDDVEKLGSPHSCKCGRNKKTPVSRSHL
The experiment in a line: Stereoselective uptake into OCT3-overexpressing HEK293 cells.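 On all read-outs here: intracellular accumulation in HEK293 cells measured by chiral HPLC-MS/MS after a 2 min substrate exposure at 37 °C, uptake normalized to total protein (bicinchoninic acid assay).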 The settings on record: for Clint ± SEM / Stereoselectivity Vmax / Stereoselectivity Km: OCT3; for Clint ± SEM: quotient of vmax over Km; for Stereoselectivity Vmax / Stereoselectivity Km: ratio between enantiomers; for Stereoselectivity Vmax: given as for (R) or for 1; for Stereoselectivity Km: given as for (R) or for 1 (first-eluting); for selectivity ratio at 2 min: human.

For data set [2], the system named is OCT2 wild-type versus A270S variant. The experiment in a line: in vitro. The settings on record: human, Transporter selectivity, OCT2 wild-type versus A270S, 100 μM racemic substance, two minutes; given as for WT.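 Further: uptake into HEK293 cells stably overexpressing human OCT2 variants, intracellular enantiomers quantified by chiral HPLC-MS/MS and normalized to total protein.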
The target of data set [3] is T3, OCT2 (Homo sapiens, UniProt O15244).
T3 sequence (O15244 1-555 S270A): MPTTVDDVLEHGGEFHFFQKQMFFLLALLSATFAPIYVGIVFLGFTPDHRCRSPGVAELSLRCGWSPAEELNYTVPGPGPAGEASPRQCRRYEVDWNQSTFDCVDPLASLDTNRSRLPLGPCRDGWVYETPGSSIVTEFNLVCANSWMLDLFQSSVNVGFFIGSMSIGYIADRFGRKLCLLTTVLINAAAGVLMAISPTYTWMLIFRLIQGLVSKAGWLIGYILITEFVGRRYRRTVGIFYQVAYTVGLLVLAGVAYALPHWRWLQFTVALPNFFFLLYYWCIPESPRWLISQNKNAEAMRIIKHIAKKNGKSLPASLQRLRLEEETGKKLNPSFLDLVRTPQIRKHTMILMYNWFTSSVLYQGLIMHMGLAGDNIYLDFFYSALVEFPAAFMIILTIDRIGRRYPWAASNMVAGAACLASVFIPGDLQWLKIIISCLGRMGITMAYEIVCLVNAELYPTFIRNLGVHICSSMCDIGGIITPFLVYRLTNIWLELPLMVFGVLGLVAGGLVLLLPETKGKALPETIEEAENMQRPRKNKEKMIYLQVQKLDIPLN
The experiment in a line: Stereoselective uptake into OCT2 (wild-type)-overexpressing HEK293 cells. The settings on record: OCT2; for Clint ± SEM: quotient of vmax over Km; for selectivity ratio at 2 min: human, ratio between enantiomers.
Experimental: (§1) All transport experiments were carried out in HEK293 cells stably overexpressing human MATs or OCTs. […] All cells were regularly cultivated in DMEM supplemented with 10% (v/v) FCS, penicillin (100 U/mL) and streptomycin (100 μg/mL)and kept in culture for no longer than 30 passages.
(§2) For the uptake experiments, 300,000 cells were plated in poly-D-lysine precoated 24-well plates 48 h ahead of the transport experiment. On the day of experiment, cells were initially washed once with 37 °C pre-warmed HBSS+ (Hanks buffered salt solution supplemented with 10 mM HEPES) and subsequently incubated with the substrates dissolved in pre-warmed HBSS+ for exactly two minutes. Incubation was stopped by adding ice-cold HBSS+ followed by two washing steps. After this, cells were lysed with 80% acetonitrile containing 10 ng/mL milnacipran as internal standard for high-performance liquid chromatography coupled to tandem mass spectrometry (HPLC-MS/MS) analysis. For every experiment, two additional wells per cell line were lysed using RIPA buffer for protein quantification. Total protein was quantified using the bicinchoninic acid assay [42]. This was later used for normalization of the uptake data.
(§3) Intracellularly accumulated test substances were quantified by HPLC-MS/MS analysis using a Shimadzu Nexera HPLC system with a SIL-30AC autosampler, a CTO-20AC column oven, a LC-30AD pump, and a CBM-20A controller (Shimadzu, Kyoto, Japan). Stereoselective chromatography was carried out on a [sequence] CBH HPLC column (100 × 3 mm inner dimension with 5 μM particle size; Sigma-Aldrich, Darmstadt, Germany) with a corresponding 10 × 3 mm guard column. Reversed phased chromatography was carried out using an ammonium acetate (NH4Ac) buffered aqueous mobile phase with isopropyl alcohol (IPA) as organic solvent. […] The order of elution of the enantiomers was obtained from available reference literature [43] or by applying enantiopure reference compounds to the chiral HPLC. […] However, in every other case where the order of elution was available, the (R)-enantiomer eluted first. Given the structural similarity of the investigated substances and the fact that separation was performed on the same column with almost identical mobile phases, we assume that this order of elution for our compound set is always the (R)- before the (S)-enantiomer.
(§4) Detection was performed with an API 4000 tandem mass spectrometer (AB SCIEX, Darmstadt, Germany) operating in multiple-reaction-monitoring mode. Quantification was performed using the Analyst 1.6.2 software (AB SCIEX, Darmstadt, Germany) and quantified by comparison to standard curves with known concentrations.
(§5) All uptake data were normalized to protein content to account for variation in the number of seeded sells. Transporter-mediated net uptake was calculated by subtracting uptake into empty vector-transfected control cells from uptake into transporter-transfected cells. Kinetic parameters were then determined after non-linear regression following the Michaelis–Menten equation (v = vmax × [S]/(Km + [S])) using GraphPad Prism (Version 5.01 for Windows, GraphPad Software, La Jolla, CA, USA). Vmax refers to the maximum transport velocity and Km is defined as the substance concentration required to reach half of vmax. The intrinsic clearance Clint was calculated as the quotient of vmax over Km.
(§6) HEK293 cells stably overexpressing wild-type or mutant OCT2 were incubated with 100 μM racemic substance for two minutes.

Another data set deals with T4, OCT1 (Homo sapiens, UniProt O15245).
T4 sequence (O15245 1-554): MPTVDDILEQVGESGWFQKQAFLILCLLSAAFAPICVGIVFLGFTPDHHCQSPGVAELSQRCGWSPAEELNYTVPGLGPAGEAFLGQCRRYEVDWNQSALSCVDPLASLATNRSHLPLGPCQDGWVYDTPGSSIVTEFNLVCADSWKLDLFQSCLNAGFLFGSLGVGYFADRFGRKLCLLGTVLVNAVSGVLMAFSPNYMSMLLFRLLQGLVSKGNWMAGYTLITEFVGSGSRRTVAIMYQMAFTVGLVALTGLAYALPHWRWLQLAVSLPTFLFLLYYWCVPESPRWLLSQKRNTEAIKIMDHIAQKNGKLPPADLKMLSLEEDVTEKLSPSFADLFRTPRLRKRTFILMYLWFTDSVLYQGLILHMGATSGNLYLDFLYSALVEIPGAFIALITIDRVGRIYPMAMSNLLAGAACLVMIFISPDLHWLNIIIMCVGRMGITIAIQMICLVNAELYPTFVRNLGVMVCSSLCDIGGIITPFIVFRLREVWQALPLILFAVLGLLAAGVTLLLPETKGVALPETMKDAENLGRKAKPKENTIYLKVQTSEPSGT
The experiment in a line: Stereoselective uptake into OCT1-overexpressing HEK293 cells.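 On all read-outs here: enantiomers quantified inside cells by chiral HPLC-MS/MS, uptake normalized to total protein from bicinchoninic acid assay, substrates applied in HBSS+ buffer.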 The following applies: for Clint ± SEM: quotient of vmax over Km; for selectivity ratio at 2 min: human.

The target of data set [4] is T1, SERT. Briefly: in vitro.
The target in a further data set is DAT (Homo sapiens, UniProt Q01959). Briefly: Stereoselective uptake into DAT-overexpressing HEK293 cells.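 Further: intracellular accumulation measured by chiral HPLC-MS/MS in stably transfected HEK293 cells, normalized to total protein.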
Sequence of DAT (Q01959 whole entry): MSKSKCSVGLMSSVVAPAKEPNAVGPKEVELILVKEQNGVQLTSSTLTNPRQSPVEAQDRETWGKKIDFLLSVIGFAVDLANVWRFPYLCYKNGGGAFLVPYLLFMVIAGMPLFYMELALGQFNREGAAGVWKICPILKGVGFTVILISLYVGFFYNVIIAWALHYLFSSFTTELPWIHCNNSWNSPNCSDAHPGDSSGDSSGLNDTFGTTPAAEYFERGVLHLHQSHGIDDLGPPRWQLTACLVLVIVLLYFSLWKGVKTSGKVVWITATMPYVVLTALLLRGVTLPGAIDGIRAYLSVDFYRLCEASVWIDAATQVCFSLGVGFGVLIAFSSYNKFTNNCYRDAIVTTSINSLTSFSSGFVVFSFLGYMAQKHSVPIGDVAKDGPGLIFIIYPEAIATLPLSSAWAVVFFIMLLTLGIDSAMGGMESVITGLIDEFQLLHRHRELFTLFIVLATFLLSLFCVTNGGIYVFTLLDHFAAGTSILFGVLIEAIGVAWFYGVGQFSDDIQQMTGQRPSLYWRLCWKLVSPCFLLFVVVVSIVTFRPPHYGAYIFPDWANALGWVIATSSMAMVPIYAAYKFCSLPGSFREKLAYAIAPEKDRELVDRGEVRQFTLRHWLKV
Data set [5] concerns the target T5, OCT2 (Homo sapiens, UniProt O15244, S270A).
T5 sequence (O15244 1-555 S270A): T3 sequence (O15244 1-555 S270A)
Briefly: Stereoselective uptake into OCT2 (wild-type)-overexpressing HEK293 cells. The following applies: OCT2, ratio between enantiomers.
Experimental: as §1, §2, §3, §4, §5, §6

Experimental for OCT3: as §1, §2
Intracellularly accumulated test substances were quantified by HPLC-MS/MS analysis using a Shimadzu Nexera HPLC system with a SIL-30AC autosampler, a CTO-20AC column oven, a LC-30AD pump, and a CBM-20A controller (Shimadzu, Kyoto, Japan). Stereoselective chromatography was carried out on a [sequence] CBH HPLC column (100 × 3 mm inner dimension with 5 μM particle size; Sigma-Aldrich, Darmstadt, Germany) with a corresponding 10 × 3 mm guard column. Reversed phased chromatography was carried out using an ammonium acetate (NH4Ac) buffered aqueous mobile phase with isopropyl alcohol (IPA) as organic solvent. […] The order of elution of the enantiomers was obtained from available reference literature [43] or by applying enantiopure reference compounds to the chiral HPLC. […] Given the structural similarity of the investigated substances and the fact that separation was performed on the same column with almost identical mobile phases, we assume that this order of elution for our compound set is always the (R)- before the (S)-enantiomer.
as §4, §5

Regarding `NCC(O)c1cccc(O)c1` (single isomer, unassigned) [Norphenylephrine-1, Norphenylephrine], the “Clint ± SEM” value at NET (NET) is on record as 189 mL × g Protein^−1 × min^−1; on SERT [1] (SERT), 1.20 mL × g Protein^−1 × min^−1; at OCT3 it was 11.0 mL × g Protein^−1 × min^−1; at OCT2 [3] it was 36.4 mL × g Protein^−1 × min^−1; at OCT1 (OCT1), 4.02 mL × g Protein^−1 × min^−1; at DAT (DAT, quotient of vmax over Km), 128 mL × g Protein^−1 × min^−1. For the same compound, the “Stereoselectivity Vmax” value was found to be 1.25 fold at NET (NET, ratio between enantiomers, given as for (S) or for 2); 1.27 fold on SERT [1]; 3.88 fold at OCT3; 1.55 fold on DAT (DAT, ratio between enantiomers, given as for (S) or for 2). In addition, the selectivity ratio at 2 min at NET worked out at 1.21; at OCT3, 3.32; on OCT2 [3] (Stereoselectivity ClInt, given as for (R) or for 1), 1.4; on OCT2 [3] (Stereoselectivity Km, given as for (R) or for 1 (first-eluting)), 1.57; at OCT2 [3] (Stereoselectivity Vmax, given as for (R) or for 1), 2.19; on OCT1 (Stereoselectivity ClInt) it was 1.05. The selectivity ratio at 2 min on OCT1 (Stereoselectivity Km, OCT1, ratio between enantiomers, given as for (R) or for 1 (first-eluting)) was found to be 1.03; on OCT1 (Stereoselectivity Vmax, OCT1, ratio between enantiomers, given as for (R) or for 1), 1.08; at DAT (human) it was 1.29. In addition, the “Stereoselectivity Km” value at SERT [1] turned out to be 1.20 fold; on OCT3, 1.17 fold; on DAT (DAT, ratio between enantiomers, given as for (S) or for 2 (second-eluting)) it was 1.20 fold. Also, the selectivity ratio at 2 min, 100 μM in data set [2] was 1.18. For the same compound, the selectivity ratio at SERT [4] is 1.53.

On to `COc1cc(C(O)CN)ccc1O` (single isomer, unassigned) [Normetanephrine-1, Normetanephrine], for which the “Clint ± SEM” value at NET (NET) is given as 2.71 mL × g Protein^−1 × min^−1; at SERT [1] (SERT), 2.23 mL × g Protein^−1 × min^−1; on OCT3, 19.4 mL × g Protein^−1 × min^−1; at OCT2 [3] it was 9.24 mL × g Protein^−1 × min^−1; at OCT1 (OCT1) it was 2.46 mL × g Protein^−1 × min^−1. The “Stereoselectivity Vmax” value on NET (NET, ratio between enantiomers, given as for (R) or for 1) came out at 1.06 fold; on SERT [1] (SERT, ratio between enantiomers, given as for (S) or for 2), 1.67 fold; at OCT3, 1.09 fold; at OCT2 [5] (given as for (S) or for 2), 2.06 fold; on OCT1 (OCT1, ratio between enantiomers, given as for (R) or for 1) it was 1.47 fold. Moreover, the “Stereoselectivity Km” value at NET (NET, ratio between enantiomers, given as for (R) or for 1 (first-eluting)) is given as 1.35 fold; at SERT [1] (SERT, ratio between enantiomers, given as for (R) or for 1 (first-eluting)), 1.08 fold; at OCT3 it was 1.22 fold; at OCT2 [5] (given as for (R) or for 1 (first-eluting)), 1.32 fold; on OCT1 (OCT1, ratio between enantiomers, given as for (R) or for 1 (first-eluting)), 1.59 fold. For the same compound, the selectivity ratio at 2 min at NET was found to be 1.28; on OCT3 it was 1.12. For the same compound, the selectivity ratio at 2 min, 100 μM in data set [2] turned out to be 1.21. Also, the “Stereoselectivity ClInt” value on OCT2 [5] (given as for (R) or for 1) worked out at 1.56 fold; on OCT1 (OCT1, ratio between enantiomers, given as for (S) or for 2), 1.08 fold. The selectivity ratio on SERT [4] is 1.28. Further, on DAT (DAT, result in words), the Saturable net uptake entry is listed as “No saturable net uptake”.
